Experimental data published in patent publication US20180303812A1, “PHARMACEUTICAL COMPOSITION FOR USE IN TREATING AML AND METHOD OF TREATING AML IN A SUBJECT IN NEED THEREOF” (DAIICHI SANKYO COMPANY, LIMITED, priority 2015, published 2018).

Columns and labels:
[1] = test system: AML samples (mononuclear cells from peripheral blood or bone marrow of AML patients); experiment: Ex vivo treatment of primary AML patient samples; live cells by annexin V / propidium iodide binding assays; type: cell-based, human
Procedure: Leukemia samples isolated from peripheral blood or bone marrow of patients with newly diagnosed or relapsed/refractory AML were treated using the test compound as described below.
Heparinized peripheral blood and bone marrow samples containing more than 1.6×10^7 mononuclear cells were obtained from AML patients with newly diagnosed or relapsed/refractory AML, after informed consent according to the University of Texas MD Anderson Cancer Center (MDA, Houston, Tex., USA) guidelines in accordance with the Declaration of Helsinki. In each sample, the blast counts (blast %) was determined from routine morphological differential counts by clinical laboratory technicians, confirmed by hematopathologists at MDA (usually 500 cells were counted). […]
Mononuclear cells were purified by density-gradient centrifugation. The cells were cultured in RPMI 1640 medium containing 10% fetal bovine serum and were treated ex vivo for 48 hours with the test compound (0, 25, 50, 100, 250, 500, or 1000 nM), and live cell numbers were determined by apoptosis analysis using annexin V and propidium iodide (PI, purchased from Sigma-Aldrich) binding assays. Annexin V- and PI-negative cells were counted as live cells. Apoptosis was quantified as the proportion of annexin V-positive cells, and specific apoptosis was calculated by the following formula: % specific apoptosis=(test−control)×100/(100−control). […]

AML = AML patients; cited from earlier work

Row | Structure (SMILES) | leukemia cells induce apoptosis ([1]; in other samples) | leukemia cells induced apoptosis ([1]; in some of the samples, at a higher concentration) | clinical response (AML)
1 | CC1(C)CCC2(CC1)N[C@@H](C(=O)N[C@@H]1CC[C@@H](C(N)=O)OC1)[C@H](c1ccnc(Cl)c1F)[C@]21C(=O)Nc2cc(Cl)ccc21.Cc1ccc(S(=O)(=O)O)cc1 [Compound 2, (3′R,4′S,5′R)—N-[(3R,6S)-6-carbamoyltetrahydro-2H-pyran-3-yl]-6″-chloro-4′-(2-chloro-3-fluoropyridin-4-yl)-4,4-dimethyl-2″-oxo-1″,2″-dihydrodispiro[cyclohexane-1,2′-pyrrolidine-3′,3″-indole]-5′-carboxamide mono(4-methylbenzenesulfonate) monohydrate] | less than 20% | more than 80% | 
2 | CCOc1cc(C(C)(C)C)ccc1C1=N[C@@](C)(c2ccc(Cl)cc2)[C@@](C)(c2ccc(Cl)cc2)N1C(=O)N1CCN(CCCS(C)(=O)=O)CC1 [RG7112] |  |  | clinical responses including complete remissions
